Test results reported in patent US11572590B2, “Methods for evaluating tumor cell spheroids using 3D microfluidic cell culture device” (Dana-Farber Cancer Institute, Inc., priority 2017, dated 2023).
Read-outs that look alike come from different tables or passages of the source.

Tests used:
Assay in all cases: SelectScreen Kinase Profiling, single point inhibition and IC50 for off-target kinases
Assay type in all cases: biochemical
off-target kinases [1] = target: T1, off-target kinases (Homo sapiens, UniProt Q12851); conditions: MAP4K2 (GCK), ZLYTE, ATP Km app
T1 sequence (Q12851 1-820): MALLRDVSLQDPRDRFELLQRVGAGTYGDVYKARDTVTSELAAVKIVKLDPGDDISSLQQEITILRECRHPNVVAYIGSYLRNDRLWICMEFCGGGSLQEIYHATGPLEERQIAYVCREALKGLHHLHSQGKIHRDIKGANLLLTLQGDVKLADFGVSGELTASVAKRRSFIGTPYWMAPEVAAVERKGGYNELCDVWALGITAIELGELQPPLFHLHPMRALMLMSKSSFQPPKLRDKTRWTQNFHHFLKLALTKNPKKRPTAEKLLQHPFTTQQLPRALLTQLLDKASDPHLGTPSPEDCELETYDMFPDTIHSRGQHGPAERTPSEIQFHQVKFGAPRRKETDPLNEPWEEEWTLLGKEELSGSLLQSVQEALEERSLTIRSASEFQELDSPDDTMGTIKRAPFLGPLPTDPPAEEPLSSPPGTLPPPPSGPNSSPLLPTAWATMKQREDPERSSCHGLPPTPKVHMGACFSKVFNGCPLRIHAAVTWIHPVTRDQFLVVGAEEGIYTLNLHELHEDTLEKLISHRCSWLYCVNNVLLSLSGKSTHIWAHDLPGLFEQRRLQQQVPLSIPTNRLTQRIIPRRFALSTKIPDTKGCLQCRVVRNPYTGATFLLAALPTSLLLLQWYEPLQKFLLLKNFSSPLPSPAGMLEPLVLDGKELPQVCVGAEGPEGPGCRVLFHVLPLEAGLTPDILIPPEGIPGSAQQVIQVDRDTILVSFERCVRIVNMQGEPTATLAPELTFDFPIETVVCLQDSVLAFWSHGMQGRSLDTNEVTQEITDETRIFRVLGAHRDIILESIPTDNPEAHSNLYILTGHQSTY

off-target kinases [2] = target: off-target kinases (Homo sapiens, UniProt P06493)
Sequence of off-target kinases (Homo sapiens, UniProt P06493) (P06493 whole entry): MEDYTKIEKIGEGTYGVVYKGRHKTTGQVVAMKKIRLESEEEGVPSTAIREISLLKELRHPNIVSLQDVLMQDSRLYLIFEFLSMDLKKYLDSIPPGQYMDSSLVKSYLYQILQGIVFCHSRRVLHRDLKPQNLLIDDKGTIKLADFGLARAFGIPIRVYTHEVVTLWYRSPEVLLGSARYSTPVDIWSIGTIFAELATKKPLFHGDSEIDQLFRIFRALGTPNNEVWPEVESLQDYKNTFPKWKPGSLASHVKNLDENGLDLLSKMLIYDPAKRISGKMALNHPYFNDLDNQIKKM

off-target kinases [3] = target: T2, off-target kinases (Homo sapiens, UniProt Q9UBE8); conditions: NLK, LanthaScreen Binding
T2 sequence (Q9UBE8 1-527): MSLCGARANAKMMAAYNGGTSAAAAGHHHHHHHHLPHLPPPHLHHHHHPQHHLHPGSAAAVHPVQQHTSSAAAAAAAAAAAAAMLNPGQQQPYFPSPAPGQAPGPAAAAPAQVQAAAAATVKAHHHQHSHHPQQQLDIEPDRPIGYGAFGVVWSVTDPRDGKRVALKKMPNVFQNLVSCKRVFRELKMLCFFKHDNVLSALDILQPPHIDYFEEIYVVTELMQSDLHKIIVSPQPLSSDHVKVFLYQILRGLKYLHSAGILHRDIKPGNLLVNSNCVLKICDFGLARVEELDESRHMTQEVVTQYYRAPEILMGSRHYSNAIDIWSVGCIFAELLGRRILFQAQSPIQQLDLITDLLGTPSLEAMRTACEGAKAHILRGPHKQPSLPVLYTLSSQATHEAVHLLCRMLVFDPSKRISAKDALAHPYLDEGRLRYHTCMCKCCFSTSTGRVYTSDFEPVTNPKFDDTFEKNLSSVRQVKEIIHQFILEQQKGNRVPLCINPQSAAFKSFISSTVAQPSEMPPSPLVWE

**Q.** `N#Cc1cc(-c2ncnc(Nc3ccc(N4CCN(C5COC5)CC4)cc3)n2)ccc1OC1CCOCC1` [Compound 1, 5-(4-((4-(4-(oxetan-3-yl)piperazin-1-yl)phenyl)amino)-1,3,5-triazin-2-yl)-2-((tetrahydro-2H-pyran-4-yl)oxy)benzonitrile] was tested. Which inhibition (off-target kinases [1]; read-out: % Inhibition 1) did it give?
**A.** The inhibition was 6%.

**Q.** And the inhibition (off-target kinases [1]; read-out: % Inhibition 2)?
**A.** Its inhibition is -2%.

**Q.** What about the inhibition (off-target kinases [1]; read-out: % Inhibition Avg) of the same molecule?
**A.** The inhibition was 2%.

**Q.** And the inhibition (off-target kinases [2]; CDK1/cyclin A2, LanthaScreen Binding, read-out: % Inhibition 1)?
**A.** Its inhibition is 2%.

**Q.** And the inhibition (off-target kinases [2]; CDK1/cyclin A2, LanthaScreen Binding, read-out: % Inhibition 2)?
**A.** Its inhibition is 12%.

**Q.** What about the inhibition (off-target kinases [2]; CDK1/cyclin A2, LanthaScreen Binding, read-out: % Inhibition Avg) of the same molecule?
**A.** Its inhibition is 7%.

**Q.** And the inhibition (off-target kinases [2]; CDK1/cyclin B, ZLYTE, ATP Km app, read-out: % Inhibition 1)?
**A.** Its inhibition is 16%.

**Q.** And the inhibition (off-target kinases [2]; CDK1/cyclin B, ZLYTE, ATP Km app, read-out: % Inhibition 2)?
**A.** Its inhibition is 15%.

**Q.** And the inhibition (off-target kinases [2]; CDK1/cyclin B, ZLYTE, ATP Km app, read-out: % Inhibition Avg)?
**A.** The inhibition was 16%.

**Q.** What about the inhibition (off-target kinases [3]; read-out: % Inhibition 1) of the same molecule?
**A.** The inhibition was 26%.

**Q.** What about the inhibition (off-target kinases [3]; read-out: % Inhibition 2) of the same molecule?
**A.** Its inhibition is 29%.

**Q.** And the inhibition (off-target kinases [3]; read-out: % Inhibition Avg)?
**A.** Its inhibition is 28%.
